Results as given in patent US7582678B2, “Use of branched-chain fatty acids and derivatives thereof for the treatment of pain” (D-PHARM Limited, priority 1998, dated 2009).

Key:
[1] = system: CD-1 mice; details: 150 mg/kg single dose one hour before formalin; vs non-treated animals; 10 to 35 minutes after formalin (chronic phase); p<0.05 (FIG. 2)
Method: Evaluation of pain is based on the observed behavior of the animals after the formalin injection.
Formalin stock (Frutarom Ltd., Israel; cat. # 5551830; 3.4-3.8% formaldehyde content) was diluted into 2.5% formalin solution in saline. 25 μl of the 2.5% formalin solution was injected into the plantar surface of CD-1 mice foot using a syringe with a 29G needle. The animals' reaction, apparent as licking and lifting the paw off the ground, is noticed immediately after injection. Each of the treated animals and control naive animals injected only with formalin was monitored for a period of 40 min, through 5 minutes time segments (4-6 animals in a group).
Evaluation of pain was performed by recording the time the animal spent licking its paw. A computerized program was used for timing the total number of seconds each animal spent licking its paw during the preset period of 5 min. This step was repeated for up to 40 min (8 intervals of 5 min).

[2] = system: Sprague-Dawley (SD) rats; details: rats day 15 post-CCI operation, s.c. 150 mg/kg, vs vehicle (FIG. 3)
Method: Male, Sprague-Dawley (SD) rats, weighing around 200-250 grams, were anesthetized by i.p. injection of ketamine (50 mg/kg) and xylazine (10 mg/kg). The common sciatic nerve was exposed at the middle of the thigh of the hind right foot. Four ligatures were tied loosely around the nerve with a spacing of about 1 mm between them. The incision was closed by suturing the inner layers of the muscles with chromic gut suture, and the outer skin with silk suture. Five to seven days later the nociceptive threshold can be evaluated by quantifying sensitivity of the foot to mechanical stimuli or cold temperatures to assess allodynia.
The mechanical sensitivity of the animal foot is measured using the von Frey test [Kim and Chung (1992) Pain 50: 355-63]. An automated von Frey test was employed, in which a von Frey filament is applied to the plantar surface of the animal foot and the filament is pushed automatically at a preset rate of force/time increments into the plantar. Each measurement was repeated 2-3 times in each epsilateral and contralateral foot of the tested animals. The time lapsed from applying of pressure until withdrawal of the foot from the innocuous stimulus was measured in the treated animals and compared to the baseline values obtained for each animal prior to treatment.
As a control served CCI-operated animals injected with vehicle only.

[3] = system: Male CD-1 mice; assay: Tail flick assay (radiated heat, acute pain) in mice;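 note: infrared heat aimed at the tail of restrained mice, time until tail flick recorded as mean of 2-3 readings, 4-8 animals per group, compared with vehicle-treated animals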
Method: The analgesic effect of branched-chain fatty acids (BFAs) and their DP-BFAs derivatives was tested by using the tail flick assay in mice.
This model uses radiated infrared (IR) heat source that is directed to the tail of a restrained mouse. The threshold of tolerance for heat is indicated by a time-meter, which is stopped instantaneously when the tail flicks. This time is defined as ‘withdrawal latency’.
Male CD-1 mice weighing around 25-30 grams (4-8 animals per each dose of the tested compound) were used. The animals were put in clear plastic cages above an IR source (7371-Plantar™ Analgesia Instrument, UGO Basile), where the IR generator is placed directly underneath the tail of the mouse and the light beam is focused on the proximal third of the tail.
The withdrawal latency, namely the time interval from the starting of the infrared radiation until the animal feels pain and flicks its tail is determined. The initial withdrawal latency for each animal was measured at t=0 and was determined as its baseline threshold.
In order to determine the analgesic effect of a tested drug, the drug (10 to 200 mg/kg body weight) was administered to mice either orally (p.o.) or by intraperitoneal (i.p.) or subcutaneous (s.c.) injection. Withdrawal latency was determined at different time points post-administration of the drug as indicated. Each reading was performed 2-3 times and the mean-value was calculated. […] The withdrawal latency at each time point post injection is the average of 4-8 animals per group. […] Paired T-test was used to assess significance in comparison to the baseline value (t=0). Morphine was used as a positive control (2 animals per dose).

## 8-Pentadecanyl phosphocholine
[1]
  time the animal spent licking its paw: significant less time licking their paw
[2]
  withdrawal threshold (mechanical allodynia, von Frey): increased withdrawal threshold
[3]; I.P., 100 mg/kg, 15 min post-injection
  Withdrawal latency (% of vehicle): 235% of vehicle
[3]; I.P., 100 mg/kg, 45 min post-injection
  Withdrawal latency (% of vehicle): 134% of vehicle
[3]; I.P., 100 mg/kg, 75 min post-injection
  Withdrawal latency (% of vehicle): 177% of vehicle
[3]; I.P., 100 mg/kg, 105 min post-injection
  Withdrawal latency (% of vehicle): 134% of vehicle
[3]; I.P., 100 mg/kg, 135 min post-injection
  Withdrawal latency (% of vehicle): 141% of vehicle
[3]; I.P., 100 mg/kg, 285 min post-injection
  Withdrawal latency (% of vehicle): 145% of vehicle
[3]; P.O., 50 mg/kg, 45 min post-administration
  Withdrawal latency (% of vehicle): 149% of vehicle
[3]; P.O., 50 mg/kg, 75 min post-administration
  Withdrawal latency (% of vehicle): 157% of vehicle
[3]; P.O., 50 mg/kg, 105 min post-administration
  Withdrawal latency (% of vehicle): 145% of vehicle
[3]; P.O., 50 mg/kg, 135 min post-administration
  Withdrawal latency (% of vehicle): 137% of vehicle
[3]; P.O., 50 mg/kg, 285 min post-administration
  Withdrawal latency (% of vehicle): 127% of vehicle
[3]; P.O., 50 mg/kg, 345 min post-administration
  Withdrawal latency (% of vehicle): 124% of vehicle
[3]; S.C., 25 mg/kg, 45 min post-injection
  Withdrawal latency (% of vehicle): 147% of vehicle
[3]; S.C., 25 mg/kg, 75 min post-injection
  Withdrawal latency (% of vehicle): 143% of vehicle
[3]; S.C., 25 mg/kg, 105 min post-injection
  Withdrawal latency (% of vehicle): 165% of vehicle
[3]; S.C., 25 mg/kg, 135 min post-injection
  Withdrawal latency (% of vehicle): 169% of vehicle
[3]; S.C., 25 mg/kg, 285 min post-injection
  Withdrawal latency (% of vehicle): 141% of vehicle
[3]; S.C., 25 mg/kg, 345 min post-injection
  Withdrawal latency (% of vehicle): 130% of vehicle
[3]; S.C., 150 mg/kg, 45 min post-injection
  Withdrawal latency (% of vehicle): 194% of vehicle
[3]; S.C., 150 mg/kg, 75 min post-injection
  Withdrawal latency (% of vehicle): 217% of vehicle
[3]; S.C., 150 mg/kg, 105 min post-injection
  Withdrawal latency (% of vehicle): 186% of vehicle
[3]; S.C., 150 mg/kg, 135 min post-injection
  Withdrawal latency (% of vehicle): 175% of vehicle
[3]; S.C., 150 mg/kg, 285 min post-injection
  Withdrawal latency (% of vehicle): 184% of vehicle
[3]; S.C., 150 mg/kg, 345 min post-injection
  Withdrawal latency (% of vehicle): 175% of vehicle
[3]; s.c., 150 mg/kg, 5-6 hours post injection
  increase in withdrawal latency: around 80%
[3]; tail flick
  potency ranking in the assay: most potent
[3]; tail flick, Table 1
  size of analgesic effect, ranking among tested compounds: largest analgesic effects
